From US9186360B2, “Treatment of respiratory disorders using TRPA1 antagonists” (GLENMARK PHARMACEUTICALS S.A., priority 2011, dated 2015)

What was measured:
Assay type in all cases: cell-based
human TRPA1 = human TRPA1 (Homo sapiens (Human), UniProt O75762); test: 45Calcium uptake assay, AITC induced, human TRPA1 expressing CHO cells; settings: AITC 30 micromolar, read-out: IC50 values hTRPA1
Procedure: As contemplated herein, the IC50 value is measured by the following method. The inhibition of TRPA1 receptor activation is measured as inhibition of allylisothiocyanate (AITC) induced cellular uptake of radioactive calcium. Test solution of test compound is prepared in a suitable solvent using appropriate method. Human TRPA1 expressing CHO cells are grown in suitable medium. Cells are treated with test compounds followed by addition of AITC. Cells are washed and lysed. Radioactivity in the lysate is measured in Packard Top count after addition of liquid scintillant. The concentration response curves for compounds are plotted as a % of maximal response obtained in the absence of test antagonist, and the IC50 values are calculated from such concentration response curve by nonlinear regression analysis using GraphPad PRISM software.
The illustrative TRPA1 antagonists of the present invention were screened for TRPA1 activity according to a modified procedure described in Tóth, A. et al., Life Sciences 2003, 73, 487-498. The screening of the compounds can be carried out by other methods and procedures known to persons skilled in the art.
Screening for TRPA1 Antagonist Using the 45Calcium Uptake Assay:
The inhibition of TRPA1 receptor activation was measured as inhibition of allylisothiocyanate (AITC) induced cellular uptake of radioactive calcium. Test compounds were dissolved in DMSO to prepare 10 mM stock solution and then diluted using plain medium with 0.1% BSA and 1.8 mM CaCl2 to get desired concentration. Final concentration of DMSO in the reaction was 0.5% (v/v). Human TRPA1 expressing CHO cells were grown in F-12 DMEM medium with 10% FBS, 1% penicillin-streptomycin solution, and 400 μg/ml of G-418. Cells were seeded 24 h prior to the assay in 96 well plates so as to get ˜50,000 cells per well on the day of experiment. Cells were treated with test compounds for 10 min followed by addition of AITC at a final concentration of 30 micromolar and 5 μCi/ml 45Ca+2 for 3 min at 25° C. Cells were washed and lysed using buffer containing 1% Triton X-100, 0.1% deoxycholate and 0.1% SDS. Radioactivity in the lysate was measured in Packard Top count after addition of liquid scintillant.
Concentration response curves were plotted as a % of maximal response obtained in the absence of test antagonist. IC50 value was calculated from concentration response curve by nonlinear regression analysis using GraphPad PRISM software.

human TRPV1 = human TRPV1 (Homo sapiens (Human), UniProt Q8NER1); test: Radiometric calcium selectivity assay, CHO cells expressing human TRPV1 (capsaicin); settings: read-out: IC50 values hTRPV1
Procedure: (§1) For selectivity screening, CHO cells stably expressing human TRPV1, human TRPV3, human TRPV4, or human TRPM8 were generated in-house and maintained in DMEM F-12 supplemented with 10% FBS and G418. All the cell types were cultured at 37° C. in humidified air containing 5% CO2. Radiometric calcium assay was performed as described above with some minor modifications. Assay was carried out in total volume of 200 μl at 30° C. (for TRPV1), 32° C. (for TRPV3) and 25° C. (for TRPV4 and TRPM8). Agonists used for selectivity screening of the different TRPs are: Capsaicin for TRPV1,2-aminoethoxydiphenyl borate for TRPV3, 4α-phorbol 12,13-didecanoate for TRPV4 and Icilin for TRPM8. After 2-5 minutes of agonist treatment, drug was washed and lysed in lysis buffer as mentioned above. Radioactivity in the lysate was measured in Packard Top count after addition of liquid scintillant.

human TRPV3 = human TRPV3 (Homo sapiens (Human), UniProt Q8NET8); test: Radiometric calcium selectivity assay, CHO cells expressing human TRPV3 (2-aminoethoxydiphenyl borate); settings: read-out: IC50 values hTRPV3
Procedure: as §1

human TRPV4 = human TRPV4 (Homo sapiens (Human), UniProt Q9HBA0); test: Radiometric calcium selectivity assay, CHO cells expressing human TRPV4 (4α-phorbol 12,13-didecanoate); settings: read-out: IC50 values hTRPV4
Procedure: as §1

human TRPM8 = human TRPM8 (Homo sapiens (Human), UniProt Q7Z2W7); test: Radiometric calcium selectivity assay, CHO cells expressing human TRPM8 (icilin); settings: read-out: IC50 values hTRPM8
Procedure: as §1

human TRPV3, sequence (Q8NET8 whole entry): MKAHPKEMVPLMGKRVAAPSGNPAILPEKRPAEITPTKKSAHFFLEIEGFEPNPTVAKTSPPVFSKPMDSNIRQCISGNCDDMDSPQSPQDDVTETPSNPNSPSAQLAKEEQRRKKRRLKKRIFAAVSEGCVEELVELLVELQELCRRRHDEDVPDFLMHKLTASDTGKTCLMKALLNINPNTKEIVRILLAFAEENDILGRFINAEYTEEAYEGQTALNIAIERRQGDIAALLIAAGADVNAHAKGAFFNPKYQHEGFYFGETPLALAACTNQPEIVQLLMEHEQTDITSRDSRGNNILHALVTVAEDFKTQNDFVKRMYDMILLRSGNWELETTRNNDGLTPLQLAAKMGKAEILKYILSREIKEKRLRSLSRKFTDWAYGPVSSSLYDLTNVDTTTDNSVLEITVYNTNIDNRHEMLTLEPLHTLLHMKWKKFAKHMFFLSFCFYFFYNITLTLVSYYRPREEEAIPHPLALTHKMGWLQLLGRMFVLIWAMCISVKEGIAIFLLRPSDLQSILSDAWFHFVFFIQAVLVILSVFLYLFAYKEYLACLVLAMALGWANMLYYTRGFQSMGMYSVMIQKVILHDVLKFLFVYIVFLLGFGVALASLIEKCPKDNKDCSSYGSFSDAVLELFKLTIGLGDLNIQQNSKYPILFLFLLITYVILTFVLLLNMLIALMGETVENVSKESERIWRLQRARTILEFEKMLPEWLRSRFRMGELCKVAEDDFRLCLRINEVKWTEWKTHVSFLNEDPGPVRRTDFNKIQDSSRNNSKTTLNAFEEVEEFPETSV
human TRPA1, sequence (O75762 whole entry): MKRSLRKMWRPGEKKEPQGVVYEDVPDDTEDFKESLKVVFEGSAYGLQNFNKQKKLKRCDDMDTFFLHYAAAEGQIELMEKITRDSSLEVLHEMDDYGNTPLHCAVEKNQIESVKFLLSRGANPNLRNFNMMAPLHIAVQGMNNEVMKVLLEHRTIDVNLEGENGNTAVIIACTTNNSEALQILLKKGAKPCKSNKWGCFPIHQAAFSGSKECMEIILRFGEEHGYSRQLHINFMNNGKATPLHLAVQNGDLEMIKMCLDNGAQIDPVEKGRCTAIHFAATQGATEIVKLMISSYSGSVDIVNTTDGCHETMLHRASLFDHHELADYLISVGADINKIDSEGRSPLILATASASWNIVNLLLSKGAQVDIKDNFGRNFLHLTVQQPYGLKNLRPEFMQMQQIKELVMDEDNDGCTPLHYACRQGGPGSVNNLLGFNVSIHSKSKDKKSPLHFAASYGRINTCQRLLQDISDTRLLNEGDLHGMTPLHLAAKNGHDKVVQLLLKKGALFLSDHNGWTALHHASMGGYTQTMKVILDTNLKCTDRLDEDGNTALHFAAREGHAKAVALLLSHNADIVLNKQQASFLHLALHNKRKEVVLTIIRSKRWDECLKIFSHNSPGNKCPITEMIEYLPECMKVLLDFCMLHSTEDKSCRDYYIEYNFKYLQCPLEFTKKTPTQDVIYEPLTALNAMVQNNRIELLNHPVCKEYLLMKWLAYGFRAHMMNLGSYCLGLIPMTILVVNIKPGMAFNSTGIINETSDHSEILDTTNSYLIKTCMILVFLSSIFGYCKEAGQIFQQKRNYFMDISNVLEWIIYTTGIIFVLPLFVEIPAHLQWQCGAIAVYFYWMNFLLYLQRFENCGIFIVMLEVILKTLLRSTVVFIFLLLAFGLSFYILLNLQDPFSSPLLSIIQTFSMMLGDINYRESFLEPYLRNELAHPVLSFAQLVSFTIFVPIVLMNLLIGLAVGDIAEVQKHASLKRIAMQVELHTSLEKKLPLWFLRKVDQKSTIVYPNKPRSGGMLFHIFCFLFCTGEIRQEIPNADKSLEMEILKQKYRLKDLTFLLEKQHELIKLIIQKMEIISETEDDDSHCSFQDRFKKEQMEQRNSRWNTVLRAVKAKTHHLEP
human TRPV4, sequence (Q9HBA0 whole entry): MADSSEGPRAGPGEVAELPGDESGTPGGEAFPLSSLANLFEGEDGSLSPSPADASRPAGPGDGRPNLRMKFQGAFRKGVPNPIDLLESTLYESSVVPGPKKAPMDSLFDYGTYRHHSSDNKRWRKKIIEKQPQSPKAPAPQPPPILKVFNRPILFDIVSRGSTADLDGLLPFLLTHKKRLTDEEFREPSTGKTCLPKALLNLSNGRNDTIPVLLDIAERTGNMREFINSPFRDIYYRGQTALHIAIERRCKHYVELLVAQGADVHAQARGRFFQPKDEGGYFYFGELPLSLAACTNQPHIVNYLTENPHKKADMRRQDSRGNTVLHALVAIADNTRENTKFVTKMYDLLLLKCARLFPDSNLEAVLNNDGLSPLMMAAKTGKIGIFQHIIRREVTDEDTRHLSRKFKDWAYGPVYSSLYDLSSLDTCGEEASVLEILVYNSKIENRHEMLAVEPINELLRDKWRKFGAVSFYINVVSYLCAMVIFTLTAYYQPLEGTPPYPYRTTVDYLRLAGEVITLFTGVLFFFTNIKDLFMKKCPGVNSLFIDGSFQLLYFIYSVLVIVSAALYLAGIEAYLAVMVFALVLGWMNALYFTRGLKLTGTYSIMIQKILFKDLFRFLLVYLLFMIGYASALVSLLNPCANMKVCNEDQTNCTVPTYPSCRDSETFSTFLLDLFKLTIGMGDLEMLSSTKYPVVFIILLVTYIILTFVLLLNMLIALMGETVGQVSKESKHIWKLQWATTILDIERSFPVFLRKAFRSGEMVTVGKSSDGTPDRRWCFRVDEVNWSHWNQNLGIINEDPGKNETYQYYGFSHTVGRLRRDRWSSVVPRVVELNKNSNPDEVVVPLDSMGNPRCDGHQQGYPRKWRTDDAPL
human TRPM8, sequence (Q7Z2W7 whole entry): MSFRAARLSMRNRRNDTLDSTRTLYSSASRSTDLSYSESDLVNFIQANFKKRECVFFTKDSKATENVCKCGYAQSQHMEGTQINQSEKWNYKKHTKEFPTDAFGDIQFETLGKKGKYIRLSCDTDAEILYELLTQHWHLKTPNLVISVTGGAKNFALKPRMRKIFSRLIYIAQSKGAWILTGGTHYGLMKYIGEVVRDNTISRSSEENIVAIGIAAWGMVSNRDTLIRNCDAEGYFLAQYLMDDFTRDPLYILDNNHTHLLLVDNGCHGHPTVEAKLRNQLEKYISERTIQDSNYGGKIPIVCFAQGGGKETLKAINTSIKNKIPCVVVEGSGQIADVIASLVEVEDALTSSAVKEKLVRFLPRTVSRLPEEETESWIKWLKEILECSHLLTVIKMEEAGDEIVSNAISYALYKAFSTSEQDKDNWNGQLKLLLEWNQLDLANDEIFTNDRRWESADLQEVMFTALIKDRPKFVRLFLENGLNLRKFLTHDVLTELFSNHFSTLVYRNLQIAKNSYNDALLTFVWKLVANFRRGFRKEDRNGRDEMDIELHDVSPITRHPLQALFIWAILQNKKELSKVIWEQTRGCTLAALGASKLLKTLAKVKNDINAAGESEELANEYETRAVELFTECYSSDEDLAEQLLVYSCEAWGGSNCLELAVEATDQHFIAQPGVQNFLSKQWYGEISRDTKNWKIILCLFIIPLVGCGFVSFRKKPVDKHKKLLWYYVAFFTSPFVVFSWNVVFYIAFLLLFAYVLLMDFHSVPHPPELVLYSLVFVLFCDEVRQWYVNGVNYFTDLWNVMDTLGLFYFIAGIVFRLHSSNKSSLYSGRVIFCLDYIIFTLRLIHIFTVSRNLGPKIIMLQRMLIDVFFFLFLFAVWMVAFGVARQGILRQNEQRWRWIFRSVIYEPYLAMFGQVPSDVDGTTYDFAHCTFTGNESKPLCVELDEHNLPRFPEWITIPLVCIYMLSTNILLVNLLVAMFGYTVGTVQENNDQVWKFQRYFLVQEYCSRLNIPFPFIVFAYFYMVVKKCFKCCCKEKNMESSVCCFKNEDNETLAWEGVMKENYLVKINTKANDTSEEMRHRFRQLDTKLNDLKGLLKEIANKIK
human TRPV1, sequence (Q8NER1 whole entry): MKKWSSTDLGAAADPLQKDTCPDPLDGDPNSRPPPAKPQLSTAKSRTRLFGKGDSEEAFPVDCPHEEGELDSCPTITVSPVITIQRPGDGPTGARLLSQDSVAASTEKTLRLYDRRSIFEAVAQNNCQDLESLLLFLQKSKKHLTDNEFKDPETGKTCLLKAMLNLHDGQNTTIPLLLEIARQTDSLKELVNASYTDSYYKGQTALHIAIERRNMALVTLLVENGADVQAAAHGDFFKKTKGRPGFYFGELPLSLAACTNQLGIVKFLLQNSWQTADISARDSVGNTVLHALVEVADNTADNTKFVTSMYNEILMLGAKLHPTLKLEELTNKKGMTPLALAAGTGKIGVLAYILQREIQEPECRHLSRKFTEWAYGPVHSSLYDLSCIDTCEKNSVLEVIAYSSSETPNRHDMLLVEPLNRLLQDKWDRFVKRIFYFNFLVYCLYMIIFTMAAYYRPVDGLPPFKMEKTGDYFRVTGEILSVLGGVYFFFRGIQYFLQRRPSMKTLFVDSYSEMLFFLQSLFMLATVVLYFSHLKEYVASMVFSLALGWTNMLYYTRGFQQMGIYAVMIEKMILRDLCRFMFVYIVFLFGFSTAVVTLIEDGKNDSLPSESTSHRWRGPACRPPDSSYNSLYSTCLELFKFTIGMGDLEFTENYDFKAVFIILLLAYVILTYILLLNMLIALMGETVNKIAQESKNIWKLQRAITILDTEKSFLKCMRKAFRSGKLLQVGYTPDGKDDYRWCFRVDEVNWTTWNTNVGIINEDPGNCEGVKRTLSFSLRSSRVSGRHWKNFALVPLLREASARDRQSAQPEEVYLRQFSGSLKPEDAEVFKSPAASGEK

SMILES | IC50 (human TRPA1) [µM] | IC50 (human TRPV1) [µM] | IC50 (human TRPV3) [µM] | IC50 (human TRPV4) [µM] | IC50 (human TRPM8) [µM]
Cn1c(=O)c2c(cnn2CC(=O)Nc2nc(-c3cc(F)c(OCC(C)(C)C)c(F)c3)cs2)n(C)c1=O [Compound 40] | 0.0228 | > 10 | > 10 | > 10 | > 10
Cn1c(=O)c2c(CC(=O)Nc3nc(-c4ccc(F)c(C(F)(F)F)c4F)cs3)nsc2n(C)c1=O [Compound 77] | 0.0056 | > 10 | 1.77 | 0.553 | > 10
Cn1c(=O)c2c(CC(=O)Nc3nc(-c4cccc(OC(F)(F)F)c4)cs3)cccc2n(C)c1=O [Compound 26] | 0.0479 | > 10 | > 1 | > 1 | > 10
Cn1c(=O)c2c(CC(=O)Nc3nc(-c4ccc(I)cc4)cs3)cccc2n(C)c1=O [Compound 5] | 0.0663 | > 10 | > 10 | > 1 | > 10
Cn1c(=O)c2c(ccn2CC(=O)Nc2nc(-c3ccc(C(F)(F)F)c(F)c3)cs2)n(C)c1=O [Compound 36] | 0.0499 | > 10 | > 10 | > 10 | > 10
Cn1c(=O)c2c(CC(=O)Nc3nc(-c4ccc(F)cc4F)cs3)cccc2n(C)c1=O [Compound 13] | 0.0482 | > 10 | > 1 | 2.8 | > 10
Cn1c(=O)c2c(ccn2CC(=O)Nc2nc(-c3ccc(OC(F)(F)F)cc3)cs2)n(C)c1=O [Compound 34] | 0.0385 | > 10 | > 10 | > 10 | > 10
Cc1oc2c(c1CC(=O)Nc1nc(-c3ccc(Cl)c(OC(F)(F)F)c3)cs1)c(=O)n(C)c(=O)n2C [Compound 63] | 0.00904 | > 10 | > 1 | > 10 | > 10
Cn1c(=O)c2c(CC(=O)Nc3nc(-c4ccc(OC(F)(F)F)c(F)c4)cs3)cccc2n(C)c1=O [Compound 29] | 0.0114 | > 10 | > 1 | > 10 | > 10
CN1C(=O)c2c(ncn2CC(=O)Nc2nc(-c3ccc(Br)cc3)cs2)N2CCN=C12 [Compound 1] | 0.921 | > 10 | > 10 | > 10 | > 10
Cn1c(=O)c2c(CC(=O)Nc3nc(-c4ccc(OC(F)(F)F)c(F)c4)cs3)nsc2n(C)c1=O [Compound 82] | 0.00804 | > 10 | > 1 | 0.172 | > 10
Cn1c(=O)c2c(CC(=O)Nc3nc(-c4ccc(F)c(C(F)(F)F)c4)cs3)cccc2n(C)c1=O [Compound 20] | 0.0201 | > 10 | > 1 | 1.67 | > 10
CC(C)COc1ccc(-c2csc(NC(=O)Cc3cccc4c3c(=O)n(C)c(=O)n4C)n2)cc1 [Compound 23] | 0.0439 | > 10 | > 10 | > 1 | > 10
Cn1c(=O)c2c(cnn2CC(=O)Nc2nc(-c3cc(Cl)c(OCC(C)(C)C)c(Cl)c3)cs2)n(C)c1=O [Compound 37] | 0.0123 | > 10 | > 10 | > 10 | > 10
Cn1c(=O)c2c(CC(=O)Nc3nc(-c4ccc(F)c(C(F)(F)F)c4F)cs3)ccnc2n(C)c1=O [Compound 87] | 0.0193 | > 10 | > 10 | 2.01 | > 10
Cn1nc2c(c1CC(=O)Nc1nc(-c3ccc(C(F)(F)F)c(F)c3)cs1)c(=O)n(C)c(=O)n2C [Compound 38] | 0.0159 | > 10 | > 10 | > 1 | > 10

SMILES | IC50 (human TRPA1) [µM] | IC50 (human TRPV1) [µM] | IC50 (human TRPV3) [µM] | IC50 (human TRPV4) [µM] | IC50 (human TRPM8) [µM]
CCc1sc2c(c1CC(=O)Nc1nc(-c3cc(F)c(OC(F)F)c(F)c3)cs1)c(=O)n(C)c(=O)n2C [Compound 48] | 0.0181 | > 10 | > 10 | > 10 | > 10
Cn1c(=O)c2c(CC(=O)Nc3nc(-c4cc(F)cc(C(F)(F)F)c4)cs3)coc2n(C)c1=O [Compound 55] | 0.00215 | > 10 | > 1 | > 1 | > 10
Cn1c(=O)c2c(CC(=O)Nc3nc(-c4cc(F)c(OCC(F)(F)F)c(Cl)c4)cs3)coc2n(C)c1=O [Compound 60] | 0.00354 | > 10 | > 10 | > 1 | > 10
Cc1oc2c(c1CC(=O)Nc1nc(-c3ccc(F)c(OC(F)(F)F)c3)cs1)c(=O)n(C)c(=O)n2C [Compound 68] | 0.00484 | > 10 | > 1 | > 10 | > 10
Cn1c(=O)c2c(CC(=O)Nc3nc(-c4ccc(OC(F)(F)F)c(Cl)c4)cs3)nsc2n(C)c1=O [Compound 80] | 0.00628 | > 10 | > 10 | 0.279 | > 10
CN1C(=O)c2c(ncn2CC(=O)Nc2nc(-c3ccc(C(C)(C)C)cc3)cs2)N2CCN=C12 [Compound 2] | 0.382 | > 10 | > 10 | 3.84 | > 10
CCc1sc2c(c1CC(=O)Nc1nc(-c3ccc(C(F)(F)F)c(F)c3)cs1)c(=O)n(C)c(=O)n2C [Compound 50] | 0.0167 | > 10 | > 1 | 8.89 | > 10
Cc1oc2c(c1CC(=O)Nc1nc(-c3ccc(C(F)(F)F)cc3F)cs1)c(=O)n(C)c(=O)n2C [Compound 65] | 0.00665 | > 10 | > 1 | > 1 | > 10
Cc1oc2c(c1CC(=O)Nc1nc(-c3ccc(F)c(C(F)(F)F)c3F)cs1)c(=O)n(C)c(=O)n2C [Compound 64] | 0.00452 | > 10 | > 1 | > 10 | > 10
Cc1oc2c(c1CC(=O)Nc1nc(-c3cc(F)c(OCC(C)(C)C)c(F)c3)cs1)c(=O)n(C)c(=O)n2C [Compound 66] | 0.00363 | > 10 | > 10 | > 10 | > 10
Cn1c(=O)c2c(CC(=O)Nc3nc(-c4cccc(Cl)c4)cs3)cccc2n(C)c1=O [Compound 9] | 0.103 | > 10 | > 1 | > 1 | > 10
Cn1c(=O)c2c(CC(=O)Nc3nc(-c4ccc(C(F)(F)F)c(F)c4)cs3)nsc2n(C)c1=O [Compound 81] | 0.00674 | > 10 | > 1 | 0.162 | > 10
Cn1c(=O)c2c(CC(=O)Nc3nc(-c4cccc(C(F)(F)F)c4F)cs3)coc2n(C)c1=O [Compound 59] | 0.00221 | > 10 | > 1 | 2.83 | > 10
Cn1c(=O)c2c(CC(=O)Nc3nc(-c4ccc(C(F)(F)F)c(F)c4)cs3)coc2n(C)c1=O [Compound 54] | 0.0177 | > 10 | > 1 | > 1 | > 10
Cn1c(=O)c2c(CC(=O)Nc3nc(-c4ccc(F)c(C(F)(F)F)c4F)cs3)cccc2n(C)c1=O [Compound 31] | 0.0173 | > 10 | > 10 | > 10 | > 10
